Like-named read-outs stand apart in the source and are kept apart here.
Target: T1, PIP4K2C (Homo sapiens, UniProt Q8TBX8)
T1 sequence (Q8TBX8 1-421): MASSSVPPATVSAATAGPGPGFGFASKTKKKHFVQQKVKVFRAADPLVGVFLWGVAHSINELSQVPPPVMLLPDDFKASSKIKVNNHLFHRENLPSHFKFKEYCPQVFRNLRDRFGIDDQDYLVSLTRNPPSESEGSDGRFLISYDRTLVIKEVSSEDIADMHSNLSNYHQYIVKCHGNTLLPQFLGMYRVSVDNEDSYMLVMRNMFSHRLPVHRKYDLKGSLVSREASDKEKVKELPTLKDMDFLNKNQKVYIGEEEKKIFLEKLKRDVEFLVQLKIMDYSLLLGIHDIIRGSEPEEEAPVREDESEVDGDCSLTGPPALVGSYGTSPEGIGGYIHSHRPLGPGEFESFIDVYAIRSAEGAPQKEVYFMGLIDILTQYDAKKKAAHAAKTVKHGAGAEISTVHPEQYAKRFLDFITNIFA
Test: HiBiT PIP4K2C degradation assay in MOLT-4 cells (endogenous PIP4K2C C-terminally tagged with HiBiT)
Format: cell-based
Parameters: untagged in primary human PBMCs and monocyte-derived dendritic cells
Settings: MOLT-4, top concentration 10 micromolar
Text: Example B-2: HiBiT PIP4K2C degradation assay
Materials: MOLT-4, a human T lymphoblast cell line (see https://www.atcc.org/products/crl-1582, herein incorporated by reference in its entirety), was genetically engineered using CRISPR-Cas9 by Synthego Corporation (Redwood City, CA) to C-terminally tag endogenous PIP4K2C with HiBiT peptide. Following clonal selection, genotype was confirmed by Sanger sequencing. MO LT-4 were maintained using RPMI-1640 medium from Gibco (Grand Island, NY, catalog number 11875-085) supplemented with 10% fetal bovine serum (FBS) from VWR (Philadelphia, PA, catalog number 97068-085). For HiBiT assays the cells were resuspended in RPMI-1640 medium without phenol read from Gibco (Grand Island, NY, catalog number 11835-030) supplemented with 10% FBS. Nano-Glo® HiBiT Lytic Assay System was purchased from Promega (Madison, WI, Catalog number N3030). Cell culture flasks and 384-well microplates were purchased from Corning (Glendale, AZ).
To study PIP4K2C degradation, 384-well plates were plated with a 10-point dose response curve, 3-fold dilution, in duplicate with a top starting concentration of 10 micromolar. Subsequently 22,500 cells were added to each well and incubated at 37 C in 5% C02 for 24 hours or 6 hours. At the end of the incubation time, cells were treated with the Nano-Glo® HiBiT Lytic Detection System following the manufacturer's instructions. Luminescence was measured with a PHERAstar FSX plate reader (BMG Labtech, Cary, NC). The Levenberg-Marquardt algorithm was used to fit a Hill equation to dose-response data to calculate DC50 values (see Table 6).

[1] = 6 hours of incubation time, rather than 24 hours, read-out: HiBIT-degradation MOLT4 PIP4k2C DC50 (6 hours, marked *)
[2] = 24 hours incubation, read-out: HiBIT-degradation MOLT4 PIP4k2C 24 hours DC50

For `O=C1CCC(Nc2ccc(N3CCC(CN4CCC(C(=O)N[C@H]5CC[C@H](Nc6ncc(F)c(-c7cccc(-n8ccccc8=O)c7)n6)CC5)CC4)CC3)c(F)c2)C(=O)N1` (mixture of isomers) [Compound 433, 1-((1-(4-((2,6-dioxopiperidin-3-yl)amino)-2-fluorophenyl)piperidin-4-yl)methyl)-N-((1r,4r)-4-((5-fluoro-4-(3-(2-oxopyridin-1(2H)-yl)phenyl)pyrimidin-2-yl)amino)cyclohexyl)piperidine-4-carboxamide], the DC50 [1] was less than 500 nM.
`Cn1nc(C2CCC(=O)NC2=O)c2ccc(C3CCN(CCN4CCC(C(=O)N[C@H]5CC[C@H](Nc6ncc(F)c(-c7cccc(-n8ccccc8=O)c7)n6)CC5)CC4)CC3)cc21` (mixture of isomers) [Compound 534, 1-(2-(4-(3-(2,6-dioxopiperidin-3-yl)-1-methyl-1H-indazol-6-yl)piperidin-1-yl)ethyl)-N-((1r,4r)-4-((5-fluoro-4-(3-(2-oxopyridin-1(2H)-yl)phenyl)pyrimidin-2-yl)amino)cyclohexyl)piperidine-4-carboxamide] was tested, and the DC50 [1] was less than 500 nM.
For `Cn1c(=O)n(C2CCC(=O)NC2=O)c2ccc(C3CCN(CCN4CCN(C(=O)[C@H]5CCC[C@@H](Nc6ncc(Cl)c(-c7cccc(-c8ccccc8)c7)n6)C5)CC4)CC3)cc21` (relative stereo) [Compound 49, cis-3-(5-(1-(2-(4-(3-((4-([1,1′-biphenyl]-3-yl)-5-chloropyrimidin-2-yl)amino)cyclohexane-1-carbonyl)piperazin-1-yl)ethyl)piperidin-4-yl)-3-methyl-2-oxo-2,3-dihydro-1H-benzo[d]imidazol-1-yl)piperidine-2,6-dione], the DC50 [2] was less than 500 nM.
With `Cn1c(=O)n(C2CCC(=O)NC2=O)c2ccc(C3CCN(CC(=O)N4CCN(C(=O)[C@H]5CCC[C@@H](Nc6ncc(Cl)c(-c7cccc(-c8ccccc8)c7)n6)C5)CC4)CC3)cc21` (relative stereo) [Compound 51, cis-3-(5-(1-(2-(4-(3-((4-([1,1′-biphenyl]-3-yl)-5-chloropyrimidin-2-yl)amino)cyclohexane-1-carbonyl)piperazin-1-yl)-2-oxoethyl)piperidin-4-yl)-3-methyl-2-oxo-2,3-dihydro-1H-benzo[d]imidazol-1-yl)piperidine-2,6-dione] the DC50 [2] was less than 500 nM.
Compound `Cn1c(=O)n(C2CCC(=O)NC2=O)c2ccc(C3CCN(CCC4CCN(C(=O)[C@H]5CCC[C@@H](Nc6ncc(Cl)c(-c7cccc(-c8ccccc8)c7)n6)C5)CC4)CC3)cc21` (relative stereo) [Compound 52, cis-3-(5-(1-(2-(1-(3-((4-([1,1′-biphenyl]-3-yl)-5-chloropyrimidin-2-yl)amino)cyclohexane-1-carbonyl)piperidin-4-yl)ethyl)piperidin-4-yl)-3-methyl-2-oxo-2,3-dihydro-1H-benzo[d]imidazol-1-yl)piperidine-2,6-dione] has a DC50 [2] of less than 500 nM.
In the case of `O=C1CCC(N2Cc3cc(C4CCN(CC(=O)N5CCN(C(=O)[C@H]6CCC[C@@H](Nc7ncc(Cl)c(-c8cccc(-c9ccccc9)c8)n7)C6)CC5)CC4)ccc3C2=O)C(=O)N1` (relative stereo) [Compound 54, cis-3-(5-(1-(2-(4-(3-((4-([1,1′-biphenyl]-3-yl)-5-chloropyrimidin-2-yl)amino)cyclohexane-1-carbonyl)piperazin-1-yl)-2-oxoethyl)piperidin-4-yl)-1-oxoisoindolin-2-yl)piperidine-2,6-dione], the DC50 [2] is reported as less than 500 nM.
`O=C1CCC(Nc2ccc(C3CCN(CCN4CCN(C(=O)[C@H]5CCC[C@@H](Nc6ncc(Cl)c(-c7cccc(-c8ccccc8)c7)n6)C5)CC4)CC3)cc2)C(=O)N1` (relative stereo) [Compound 55, cis-3-((4-(1-(2-(4-(3-((4-([1,1′-biphenyl]-3-yl)-5-chloropyrimidin-2-yl)amino)cyclohexane-1-carbonyl)piperazin-1-yl)ethyl)piperidin-4-yl)phenyl)amino)piperidine-2,6-dione] was tested, and the DC50 [2] was 500 to 1000 nM.
Compound `O=C1CCC(Nc2ccc(C3CCN(CC(=O)N4CCN(C(=O)[C@H]5CCC[C@@H](Nc6ncc(Cl)c(-c7cccc(-c8ccccc8)c7)n6)C5)CC4)CC3)cc2)C(=O)N1` (relative stereo) [Compound 57, cis-3-((4-(1-(2-(4-(3-((4-([1,1′-biphenyl]-3-yl)-5-chloropyrimidin-2-yl)amino)cyclohexane-1-carbonyl)piperazin-1-yl)-2-oxoethyl)piperidin-4-yl)phenyl)amino)piperidine-2,6-dione] has a DC50 [2] of less than 500 nM.
`Cn1c(=O)n(C2CCC(=O)NC2=O)c2ccc(C3CCN(C(=O)CN4CCN(C(=O)[C@H]5CCC[C@@H](Nc6ncc(Cl)c(-c7cccc(-c8ccccc8)c7)n6)C5)CC4)CC3)cc21` (relative stereo) [Compound 58, cis-3-(5-(1-(2-(4-(3-((4-([1,1′-biphenyl]-3-yl)-5-chloropyrimidin-2-yl)amino)cyclohexane-1-carbonyl)piperazin-1-yl)acetyl)piperidin-4-yl)-3-methyl-2-oxo-2,3-dihydro-1H-benzo[d]imidazol-1-yl)piperidine-2,6-dione] showed a DC50 [2] of less than 500 nM.
`Cn1c(=O)n(C2CCC(=O)NC2=O)c2ccc(C3CCN(C(=O)CC4CCN(C(=O)[C@H]5CCC[C@@H](Nc6ncc(Cl)c(-c7cccc(-c8ccccc8)c7)n6)C5)CC4)CC3)cc21` (relative stereo) [Compound 59, cis-3-(5-(1-(2-(1-(3-((4-([1,1′-biphenyl]-3-yl)-5-chloropyrimidin-2-yl)amino)cyclohexane-1-carbonyl)piperidin-4-yl)acetyl)piperidin-4-yl)-3-methyl-2-oxo-2,3-dihydro-1H-benzo[d]imidazol-1-yl)piperidine-2,6-dione] showed a DC50 [2] of less than 500 nM.
`O=C1CCC(N2Cc3cc(C4CCN(C(=O)C5CCN(C(=O)[C@H]6CCC[C@@H](Nc7ncc(Cl)c(-c8cccc(-c9ccccc9)c8)n7)C6)CC5)CC4)ccc3C2=O)C(=O)N1` (relative stereo) [Compound 60, cis-3-(5-(1-(1-(3-((4-([1,1′-biphenyl]-3-yl)-5-chloropyrimidin-2-yl)amino)cyclohexane-1-carbonyl)piperidine-4-carbonyl)piperidin-4-yl)-1-oxoisoindolin-2-yl)piperidine-2,6-dione] showed a DC50 [2] of less than 500 nM.
Compound `O=C1CCC(N2Cc3cc(C4CCN(CCN5CCN(C(=O)[C@H]6CCC[C@@H](Nc7ncc(Cl)c(-c8cccc(-c9ccccc9)c8)n7)C6)CC5)CC4)ccc3C2=O)C(=O)N1` (relative stereo) [Compound 61, cis-3-(5-(1-(2-(4-(3-((4-([1,1′-biphenyl]-3-yl)-5-chloropyrimidin-2-yl)amino)cyclohexane-1-carbonyl)piperazin-1-yl)ethyl)piperidin-4-yl)-1-oxoisoindolin-2-yl)piperidine-2,6-dione] has a DC50 [2] of less than 500 nM.
For `O=C1CCC(N2Cc3cc(C4CCN(CCC5CCN(C(=O)[C@H]6CCC[C@@H](Nc7ncc(Cl)c(-c8cccc(-c9ccccc9)c8)n7)C6)CC5)CC4)ccc3C2=O)C(=O)N1` (relative stereo) [Compound 62, cis-3-(5-(1-(2-(1-(3-((4-([1,1′-biphenyl]-3-yl)-5-chloropyrimidin-2-yl)amino)cyclohexane-1-carbonyl)piperidin-4-yl)ethyl)piperidin-4-yl)-1-oxoisoindolin-2-yl)piperidine-2,6-dione], the DC50 [2] was less than 500 nM.
Work on `O=C1CCC(N2Cc3cc(C4CCN(CC5CCN(C(=O)[C@H]6CCC[C@@H](Nc7ncc(Cl)c(-c8cccc(-c9ccccc9)c8)n7)C6)CC5)CC4)ccc3C2=O)C(=O)N1` (relative stereo) [Compound 63, cis-3-(5-(1-((1-(3-((4-([1,1′-biphenyl]-3-yl)-5-chloropyrimidin-2-yl)amino)cyclohexane-1-carbonyl)piperidin-4-yl)methyl)piperidin-4-yl)-1-oxoisoindolin-2-yl)piperidine-2,6-dione] yielded a DC50 [2] of less than 500 nM.
Compound `O=C1CCC(Nc2ccc(C3CCN(CCC4CCN(C(=O)[C@H]5CCC[C@@H](Nc6ncc(Cl)c(-c7cccc(-c8ccccc8)c7)n6)C5)CC4)CC3)cc2)C(=O)N1` (relative stereo) [Compound 64, cis-3-((4-(1-(2-(1-(3-((4-([1,1′-biphenyl]-3-yl)-5-chloropyrimidin-2-yl)amino)cyclohexane-1-carbonyl)piperidin-4-yl)ethyl)piperidin-4-yl)phenyl)amino)piperidine-2,6-dione] has a DC50 [2] of less than 500 nM.

Source: patent US20260355196A1, “INHIBITORS AND DEGRADERS OF PIP4K PROTEIN” (Larkspur Biosciences, Inc., priority 2023, published 2026)
